Measurements as given in US4352792A, “3-Alkoxyflavone antiviral agents” (priority 1979, dated 1982).
≈ marks a conversion by molar mass, not a printed value. Read-outs that look alike come from different tables or passages of the source.

Key:
[1] = system: rhinovirus HGP; experiment: Inhibition of viral cytopathogenic effect in HeLa cells (rhinovirus HGP); type: cell-based; settings: Enterovirus, 48 h, read-out: IC50 rhinovirus HGP
[2] = system: Coxsackie virus B1; experiment: Inhibition of viral cytopathogenic effect in HeLa cells (Coxsackie virus B1); type: cell-based; settings: for IC50: 24 h, read-out: IC50 Coxsackie virus B1
[3] = acute toxicity in mice; settings: mouse, in vivo, day 21
[4] = system: influenzavirus A2/Adachi; experiment: Anti-influenzavirus activity in mice; settings: up to 21 days; for Survivals: survivors/total
[5] = system: Coxsackie virus B1; experiment: Anti-Coxsackie virus activity, lethal infection in mice
[6] = system: Coxsackie virus B1
[7] = system: rhinovirus type 1A; experiment: in vitro antiviral spectrum; type: cell-based; settings: Enterovirus, read-out: Minimum inhibitory concentration
[8] = system: rhinovirus type 2; experiment: in vitro antiviral spectrum; type: cell-based; settings: Enterovirus, read-out: Minimum inhibitory concentration
[9] = system: rhinovirus type 3; experiment: in vitro antiviral spectrum; type: cell-based; settings: Enterovirus, read-out: Minimum inhibitory concentration
[10] = system: rhinovirus type 4; experiment: in vitro antiviral spectrum; type: cell-based; settings: Enterovirus, read-out: Minimum inhibitory concentration
[11] = system: rhinovirus type 9; experiment: in vitro antiviral spectrum; type: cell-based; settings: Enterovirus, read-out: Minimum inhibitory concentration
[12] = system: rhinovirus type 13; experiment: in vitro antiviral spectrum; type: cell-based; settings: Enterovirus, read-out: Minimum inhibitory concentration
[13] = system: rhinovirus type 14; experiment: in vitro antiviral spectrum; type: cell-based; settings: Enterovirus, read-out: Minimum inhibitory concentration
[14] = system: rhinovirus type 16; experiment: in vitro antiviral spectrum; type: cell-based; settings: Enterovirus, read-out: Minimum inhibitory concentration
[15] = system: rhinovirus type 17; experiment: in vitro antiviral spectrum; type: cell-based; settings: Enterovirus, read-out: Minimum inhibitory concentration
[16] = system: rhinovirus type 21; experiment: in vitro antiviral spectrum; type: cell-based; settings: Enterovirus, read-out: Minimum inhibitory concentration
[17] = system: rhinovirus type 26; experiment: in vitro antiviral spectrum; type: cell-based; settings: Enterovirus, read-out: Minimum inhibitory concentration
[18] = system: rhinovirus type 30; experiment: in vitro antiviral spectrum; type: cell-based; settings: Enterovirus, read-out: Minimum inhibitory concentration
[19] = system: rhinovirus type 32; experiment: in vitro antiviral spectrum; type: cell-based; settings: Enterovirus, read-out: Minimum inhibitory concentration
[20] = system: rhinovirus type 34; experiment: in vitro antiviral spectrum; type: cell-based; settings: Enterovirus, read-out: Minimum inhibitory concentration
[21] = system: rhinovirus type 36; experiment: in vitro antiviral spectrum; type: cell-based; settings: Enterovirus, read-out: Minimum inhibitory concentration
[22] = system: rhinovirus type 39; experiment: in vitro antiviral spectrum; type: cell-based; settings: Enterovirus, read-out: Minimum inhibitory concentration
[23] = system: rhinovirus type 44; experiment: in vitro antiviral spectrum; type: cell-based; settings: Enterovirus, read-out: Minimum inhibitory concentration
[24] = system: rhinovirus type 47; experiment: in vitro antiviral spectrum; type: cell-based; settings: Enterovirus, read-out: Minimum inhibitory concentration
[25] = system: rhinovirus type 50; experiment: in vitro antiviral spectrum; type: cell-based; settings: Enterovirus, read-out: Minimum inhibitory concentration
[26] = system: rhinovirus type 53; experiment: in vitro antiviral spectrum; type: cell-based; settings: Enterovirus, read-out: Minimum inhibitory concentration
[27] = system: rhinovirus type 55; experiment: in vitro antiviral spectrum; type: cell-based; settings: Enterovirus, read-out: Minimum inhibitory concentration
[28] = 50% inhibition of viral c.p.e., HeLa cells, 2 days at 33° C.
[29] = ip, single dose i.p., dissolved in dimethyl sulfoxide, read-out: LD50 i.p.
[30] = po, single dose p.o., suspended in 0.5% carboxymethylcellulose, read-out: LD50 p.o.
[31] = Mus musculus, ip, 504 h, read-out: Survival
[32] = Mus musculus, po, 504 h, read-out: Survival
[33] = 50% inhibition of viral c.p.e., HeLa cells, 1 day at 37° C.

For `COc1cc(OC(C)=O)c2c(=O)c(OC)c(-c3ccc(OC(C)=O)c(OC)c3)oc2c1`, the IC50 [1, 28] was 0.1 to 0.2 µg/mL (≈ 0.233 to 0.467 µM), the IC50 ([2]; HeLa) was 0.1 to 0.2 µg/mL (≈ 0.233 to 0.467 µM) and the LD50 at 504 h [3, 29] was greater than 1000 mg/kg. For the same compound, the LD50 at 504 h [3, 30] was greater than 5000 mg/kg, the Survivals ([4]; 20 mg/kg × 9, i.p.) was 2/7 and the “Survivals (%)” value ([4]; 20 mg/kg × 9, i.p.) was 29%. For the same compound, the Survivals ([4]; 40 mg/kg × 9, i.p.) was 3/8, the “Survivals (%)” value ([4]; 40 mg/kg × 9, i.p.) was 38% and the Survival ([5]; 40 mg/kg × 9, p.o., up to 21 days) was 50%. The responders at 10 mg/kg [5, 31] was 54%, the responders at 20 mg/kg [5, 31] was 67% and the responders at 20 mg/kg [5, 32] was 20%. The responders at 40 mg/kg [5, 32] was 50%, the responders at 80 mg/kg [5, 32] was 60% and the Survivors/total ([6]; 10 mg/kg × 9 orally, infection 2.5x LD50, day 21) was 2/7. For the same compound, the Survivors/total ([6]; 10 mg/kg × 9 orally, infection 10x LD50, day 21) was 1/7, the Survivors/total ([6]; 10 mg/kg × 9 orally, infection 40x LD50, day 21) was 0/7 and the Survivors/total ([6]; 10 mg/kg × 9 orally, infection 160x LD50, day 21) was 0/7. For the same compound, the Survivors/total ([6]; 20 mg/kg × 9 orally, infection 2.5x LD50, day 21) was 3/7, the Survivors/total ([6]; 20 mg/kg × 9 orally, infection 10x LD50, day 21) was 2/7 and the Survivors/total ([6]; 20 mg/kg × 9 orally, infection 40x LD50, day 21) was 1/7. For the same compound, the Survivors/total ([6]; 20 mg/kg × 9 orally, infection 160x LD50, day 21) was 1/7, the Survivors/total ([6]; 40 mg/kg × 9 orally, infection 2.5x LD50, day 21) was 4/7 and the Survivors/total ([6]; 40 mg/kg × 9 orally, infection 10x LD50, day 21) was 3/7. The Survivors/total ([6]; 40 mg/kg × 9 orally, infection 40x LD50, day 21) was 2/7 and the Survivors/total ([6]; 40 mg/kg × 9 orally, infection 160x LD50, day 21) was 2/7.
For `COc1cc(O)c2c(=O)c(OC)c(-c3ccc(OC(C)=O)c(OC)c3)oc2c1` [4'-acetoxy-5-hydroxy-3,3',7-trimethoxyflavone], the IC50 [1, 28] was 0.5 µg/mL (≈ 1.29 µM) and the IC50 [2, 33] was 0.25 to 0.5 µg/mL (≈ 0.647 to 1.29 µM).
`COc1cc(O)c2c(=O)c(OC(C)C)c(-c3ccc(O)c(OC)c3)oc2c1` [4',5-dihydroxy-3-isopropoxy-3',7-dimethoxyflavone] showed an IC50 [1, 28] of 0.05 to 0.1 µg/mL (≈ 0.134 to 0.269 µM) and an IC50 [2, 33] of 0.05 to 0.1 µg/mL (≈ 0.134 to 0.269 µM).
`COc1cc(O)c2c(=O)c(OC)c(-c3ccc(OC(=O)[C@@H](N)CCCCN)c(OC)c3)oc2c1` [5-hydroxy-4'-(L-lysyloxy)-3,3',7-trimethoxyflavone] showed an IC50 [1, 28] of 0.25 µg/mL (≈ 0.529 µM), an IC50 ([2]; HeLa) of 0.25 µg/mL (≈ 0.529 µM) and an LD50 at 504 h [3, 29] of 1000 mg/kg. The LD50 at 504 h [3, 30] was greater than 5000 mg/kg and the responders at 10 mg/kg ([5]; Mus musculus, iv, 504 h, read-out: Survival) was 54%.
Compound `COc1cc(O)c2c(=O)c(OC)c(-c3ccc(N)cc3)oc2c1` [4'-amino-5-hydroxy-3,7-dimethoxyflavone] has an IC50 [1, 28] of 3 µg/mL (≈ 9.58 µM) and an IC50 [2, 33] of 10 to 30 µg/mL (≈ 31.9 to 95.8 µM).
For `NC12CC3CC(CC(C3)C1)C2` [amantadine, reference compound], the “Survivals (%)” value ([4]; 20 mg/kg × 9, i.p.) was 0%, the Survivals ([4]; 40 mg/kg × 9, i.p.) was 2/7 and the “Survivals (%)” value ([4]; 40 mg/kg × 9, i.p.) was 29%.
`COc1cc(O)c2c(=O)c(OC)c(-c3ccc(O)cc3)oc2c1` [4',5-dihydroxy-3,7-dimethoxyflavone] gave an IC50 ([1]; HeLa) of 0.1 µg/mL (≈ 0.318 µM), an IC50 ([2]; HeLa) of 0.1 µg/mL (≈ 0.318 µM) and an MIC ([2]; read-out: Minimum inhibitory concentration) of 0.1 µg/mL (≈ 0.318 µM). It also gave an MIC [7] of 0.03 µg/mL (≈ 0.0955 µM), an MIC [8] of 0.1 µg/mL (≈ 0.318 µM) and an MIC [9] of 0.3 µg/mL (≈ 0.955 µM). For the same compound, the MIC [10] was 0.3 to 1 µg/mL (≈ 0.955 to 3.18 µM), the MIC [11] was 0.3 µg/mL (≈ 0.955 µM) and the MIC [12] was 0.3 to 1 µg/mL (≈ 0.955 to 3.18 µM). The MIC [13] was 0.3 µg/mL (≈ 0.955 µM), the MIC [14] was 0.3 to 1 µg/mL (≈ 0.955 to 3.18 µM) and the MIC [15] was 0.1 µg/mL (≈ 0.318 µM). The MIC [16] was 0.3 µg/mL (≈ 0.955 µM), the MIC [17] was 0.3 µg/mL (≈ 0.955 µM) and the MIC [18] was 0.1 µg/mL (≈ 0.318 µM). The MIC [19] was 0.3 µg/mL (≈ 0.955 µM), the MIC [20] was 0.3 µg/mL (≈ 0.955 µM) and the MIC [21] was 0.3 µg/mL (≈ 0.955 µM). The MIC [22] was 0.3 µg/mL (≈ 0.955 µM), the MIC [23] was 0.5 µg/mL (≈ 1.59 µM) and the MIC [24] was 0.3 µg/mL (≈ 0.955 µM). It also gave an MIC [25] of 0.3 µg/mL (≈ 0.955 µM), an MIC [26] of 0.3 µg/mL (≈ 0.955 µM) and an MIC [27] of 0.1 to 0.3 µg/mL (≈ 0.318 to 0.955 µM).
For `COc1cc(O)c2c(=O)c(OC)c(-c3ccc(OC)c(O)c3)oc2c1` [3',5-dihydroxy-3,4',7-trimethoxyflavone], the IC50 [1, 28] was 3 µg/mL (≈ 8.71 µM) and the IC50 [2, 33] was 3 to 10 µg/mL (≈ 8.71 to 29 µM).
Work on `COc1cc(O)c2c(=O)c(OC)c(-c3ccc(OC(=O)C(C)(C)C)c(OC)c3)oc2c1` [5-hydroxy-3,3',7-trimethoxy-4'-(pivaloyloxy)-flavone] yielded an IC50 [1, 28] of 0.3 µg/mL (≈ 0.7 µM) and an IC50 [2, 33] of 0.3 to 1 µg/mL (≈ 0.7 to 2.33 µM).
With `CCC(=O)Oc1ccc(-c2oc3cc(OC)cc(OC(=O)CC)c3c(=O)c2OC)cc1OC` [3,3',7-trimethoxy-4',5-bis-(propionyloxy)-flavone] the IC50 [1, 28] was 0.1 to 0.2 µg/mL (≈ 0.219 to 0.438 µM) and the IC50 [2, 33] was 0.1 to 1.2 µg/mL (≈ 0.219 to 2.63 µM).
`COc1cc(O)c2c(=O)c(OC)c(-c3ccc(O[C@@H]4O[C@H](CO)[C@@H](O)[C@H](O)[C@H]4O)c(OC)c3)oc2c1` [4'-(β-D-glucopyranosyloxy)-5-hydroxy-3,3',7-trimethoxyflavone] gave an IC50 [1, 28] of 0.25 µg/mL (≈ 0.494 µM) and an IC50 [2, 33] of 0.25 to 0.5 µg/mL (≈ 0.494 to 0.987 µM).
`COc1cc(O)c2c(=O)c(OC)c(-c3ccc(O)cc3OC)oc2c1` [4',5-dihydroxy-2,',3,7-trimethoxyflavone, 4',5-dihydroxy-2',3,7-trimethoxyflavone] gave an IC50 [1, 28] of 0.3 µg/mL (≈ 0.871 µM) and an IC50 [2, 33] of 1 to 3 µg/mL (≈ 2.9 to 8.71 µM).
